{"source": "paper PMC7053805", "about": "(Toxicology in vitro : an international journal published in …, 2019)", "key": {"[1]": {"conditions": "smelter workers; ref Ellis et al. (1981); cited from earlier work"}, "[2]": {"conditions": "cited from earlier work"}, "[3]": {"test_system": "Primary human renal proximal tubule epithelial cells (RPTECs)", "conditions": "for total amount of cadmium assumed accumulated in RPTECs: estimated from measured uptake"}, "[4]": {"assay": "Chip-to-human extrapolation", "conditions": "for predicted renal clearance/GFR ratio from the chip: Chip+Model, ETS=0"}, "[5]": {"assay": "Rapid equilibrium dialysis", "conditions": "for protein binding in the culture media: serum-supplemented media, rapid equilibrium dialysis"}, "[6]": {"conditions": "serum"}, "[7]": {"conditions": "human; cited from earlier work"}, "in vitro [8]": {"assay": "in vitro", "conditions": "human"}, "in vitro [9]": {"assay": "in vitro"}, "[10]": {"conditions": "human, indicated by in vivo renal clearance data; ref Contrepois et al., 1985; cited from earlier work"}, "[11]": {"test_system": "canine renal tubule cells", "conditions": "ref MacKay et al., 1998, cited from earlier work"}, "[12]": {"conditions": "effluent compared against stock solutions"}, "[13]": {"conditions": "kidney tubule chip, adjusted for non-specific binding, both concentrations"}}, "note": "Read-outs that look alike come from different tables or passages of the source."}
{"molecule": "[Cl][Cd][Cl]", "note": "[Cadmium, cadmium chloride]", "values": [{"measurement": "concentrations in human kidney", "setting": "[1]", "value": "up to 400 μg/g"}, {"measurement": "geometric blood level", "setting": "[2]; general population (≥1 year of age) in the USA, ref Agency for Toxic Substances and Disease Registry", "value": "~ 0.002 μM"}, {"measurement": "Cmax", "setting": "[2]; general population, Nigeria, ref Alli, 2015", "value": "~100", "unit": "nM"}, {"measurement": "Cmax", "setting": "[2]; human occupational, Nigeria, ref Alli, 2015", "value": "~1000", "unit": "nM"}, {"measurement": "total amount of cadmium assumed accumulated in RPTECs", "setting": "[3]; after 22 days at 0.05 μM", "value": 3.2, "unit": "µg/g"}, {"measurement": "total amount of cadmium assumed accumulated in RPTECs", "setting": "[3]; after 22 days at 0.5 μM", "value": 16.5, "unit": "µg/g"}, {"measurement": "uptake/reabsorption within the kidney tubule chip", "setting": "[3]; [12]", "value": "uptake"}, {"measurement": "reabsorption (loss) from adjusted Cout/Cin", "setting": "[3]; [13]", "value": "24-43%"}, {"measurement": "predicted renal clearance/GFR ratio from the chip", "setting": "[4]; cadmium 0.05 μM (free 0.0145 μM)", "value": "0.14±0.05"}, {"measurement": "predicted renal clearance/GFR ratio from the chip", "setting": "[4]; cadmium 0.5 μM (free 0.209 μM)", "value": "0.39±0.17"}, {"measurement": "back-calculated Cu/Cf in the chip", "setting": "[4]; from in vivo modeled CLR/GFR ratio 0.26 (cadmium, lower concentration)", "value": 68, "unit": "%"}, {"measurement": "back-calculated Cu/Cf in the chip", "setting": "[4]; from in vivo modeled CLR/GFR ratio 0.29 (cadmium, higher concentration)", "value": 71, "unit": "%"}, {"measurement": "fraction protein-bound in the culture media", "setting": "[5]; binding to serum proteins in culture media", "value": "up to 71%"}]}
{"molecule": "N.N.[Cl][Pt][Cl]", "note": "[Cisplatin, cisplatin]", "values": [{"measurement": "Cmax", "setting": "[2]; human, reported range, ref Verschraagen et al., 2003", "value": "1400 to 13900", "unit": "nM"}, {"measurement": "recovery from effluent samples", "setting": "[3]; cell-seeded chip, at equilibrium", "value": "~100", "unit": "%"}, {"measurement": "uptake/reabsorption within the kidney tubule chip", "setting": "[3]; [12]", "value": "little uptake"}]}
{"molecule": "CN1CC(=O)NC1=N", "note": "[Creatinine, creatinine]", "values": [{"measurement": "reabsorption (loss) from adjusted Cout/Cin", "setting": "[3]; human", "value": "0-5%"}, {"measurement": "fraction unbound", "setting": "[5]", "value": "0.934 ± 0.06"}, {"measurement": "protein binding in the culture media", "setting": "[5]", "value": "minimal protein binding"}]}
{"molecule": "CNC(C)C1CCC(N)C(OC2C(N)CC(N)C(OC3OCC(C)(O)C(NC)C3O)C2O)O1", "note": "(stereo not drawn) [Gentamicin, gentamicin]", "values": [{"measurement": "Cmax", "setting": "[2]; human, in vivo", "value": "~50000", "unit": "nM"}, {"measurement": "serum concentrations", "setting": "[2]; in vivo", "value": "5300 ± 1300", "unit": "ng/mL"}, {"measurement": "protein binding in the culture media", "setting": "[6]", "value": "minimal protein binding"}, {"measurement": "serum protein binding", "setting": "[7]", "value": "no serum protein binding"}, {"measurement": "recovery", "setting": "in vitro [8]", "value": "~100", "unit": "%"}, {"measurement": "uptake/reabsorption within the kidney tubule chip", "setting": "[3]", "value": "little uptake"}, {"measurement": "reabsorption (loss) from adjusted Cout/Cin", "setting": "[3]; human", "value": "0-5%"}, {"measurement": "net uptake by the RPTECs", "setting": "[3]; tissue chip, on average, 200 and 600 μM", "value": "< 0.5", "unit": "%"}, {"measurement": "fraction unbound", "setting": "in vitro [9]; Free fraction in cell culture media", "value": "0.897 ± 0.005"}, {"measurement": "re-absorption in vivo", "setting": "[10]", "value": "around 20%"}]}
{"molecule": "O=C(O)C(F)(F)C(F)(F)C(F)(F)C(F)(F)C(F)(F)C(F)(F)C(F)(F)F", "note": "[PFOA, perfluorooctanoic acid]", "values": [{"measurement": "blood levels", "setting": "[2]; occupationally exposed subjects, ref ATSDR, 2018", "value": "≤ 24200", "unit": "nM"}, {"measurement": "uptake/reabsorption within the kidney tubule chip", "setting": "[3]; [12]", "value": "uptake"}, {"measurement": "reabsorption (loss) from adjusted Cout/Cin", "setting": "[3]; [13]", "value": "3-13%"}, {"measurement": "fraction unbound", "setting": "in vitro [9]", "value": "0.986 ± 0.149"}, {"measurement": "protein binding in the culture media", "setting": "[5]", "value": "minimal protein binding"}]}
{"molecule": "inulin", "values": [{"measurement": "recovery in luminal effluent", "setting": "[11]; bioreactor with confluent cells", "value": "≥ 98.9", "unit": "%"}, {"measurement": "recovery in luminal effluent", "setting": "[11]; blank devices", "value": "≤ 7.4", "unit": "%"}]}
